ChEMBL document CHEMBL1201862, “PubChem BioAssay data set” (2004)
Active and inactive are the calls of the source.

Tests used:
[1] = biological target: T1, Kappa-type opioid receptor (Homo sapiens, UniProt P41145); assay type: functional
[2] = biological target: T1, Kappa-type opioid receptor; assay type: functional; remark: listed apart in the source
[3] = biological target: T2, Heat shock factor protein 1 (Mus musculus, UniProt P38532); experiment: decrease of HSF1-responsive luciferase luminescence – cell-based, NIH3T3, dose retest, confirmation (AID 2382); assay type: functional;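 note: NIH3T3 fibroblasts with HSF1-driven luciferase reporter stressed by proteasome inhibitor MG132; luminescence from HSF1-driven luciferase expression after 8 hours of MG132 stress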
T2 sequence (P38532 whole entry): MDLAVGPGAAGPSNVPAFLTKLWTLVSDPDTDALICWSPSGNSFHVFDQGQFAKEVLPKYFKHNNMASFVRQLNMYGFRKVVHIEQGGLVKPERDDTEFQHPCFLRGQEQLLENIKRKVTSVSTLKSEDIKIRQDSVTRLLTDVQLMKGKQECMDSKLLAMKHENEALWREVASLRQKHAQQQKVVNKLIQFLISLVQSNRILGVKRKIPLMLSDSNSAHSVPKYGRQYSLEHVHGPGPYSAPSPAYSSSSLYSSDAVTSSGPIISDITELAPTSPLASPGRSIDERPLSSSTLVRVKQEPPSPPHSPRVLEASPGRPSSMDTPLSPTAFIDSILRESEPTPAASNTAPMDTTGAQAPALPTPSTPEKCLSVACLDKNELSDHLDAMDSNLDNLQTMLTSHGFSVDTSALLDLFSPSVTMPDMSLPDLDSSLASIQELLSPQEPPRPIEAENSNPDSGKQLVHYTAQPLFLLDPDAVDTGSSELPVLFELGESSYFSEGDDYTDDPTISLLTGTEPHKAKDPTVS

[4] = biological target: Beta-galactosidase (Escherichia coli, UniProt Q8VNN2); assay type: functional
Sequence of Beta-galactosidase (Q8VNN2 whole entry): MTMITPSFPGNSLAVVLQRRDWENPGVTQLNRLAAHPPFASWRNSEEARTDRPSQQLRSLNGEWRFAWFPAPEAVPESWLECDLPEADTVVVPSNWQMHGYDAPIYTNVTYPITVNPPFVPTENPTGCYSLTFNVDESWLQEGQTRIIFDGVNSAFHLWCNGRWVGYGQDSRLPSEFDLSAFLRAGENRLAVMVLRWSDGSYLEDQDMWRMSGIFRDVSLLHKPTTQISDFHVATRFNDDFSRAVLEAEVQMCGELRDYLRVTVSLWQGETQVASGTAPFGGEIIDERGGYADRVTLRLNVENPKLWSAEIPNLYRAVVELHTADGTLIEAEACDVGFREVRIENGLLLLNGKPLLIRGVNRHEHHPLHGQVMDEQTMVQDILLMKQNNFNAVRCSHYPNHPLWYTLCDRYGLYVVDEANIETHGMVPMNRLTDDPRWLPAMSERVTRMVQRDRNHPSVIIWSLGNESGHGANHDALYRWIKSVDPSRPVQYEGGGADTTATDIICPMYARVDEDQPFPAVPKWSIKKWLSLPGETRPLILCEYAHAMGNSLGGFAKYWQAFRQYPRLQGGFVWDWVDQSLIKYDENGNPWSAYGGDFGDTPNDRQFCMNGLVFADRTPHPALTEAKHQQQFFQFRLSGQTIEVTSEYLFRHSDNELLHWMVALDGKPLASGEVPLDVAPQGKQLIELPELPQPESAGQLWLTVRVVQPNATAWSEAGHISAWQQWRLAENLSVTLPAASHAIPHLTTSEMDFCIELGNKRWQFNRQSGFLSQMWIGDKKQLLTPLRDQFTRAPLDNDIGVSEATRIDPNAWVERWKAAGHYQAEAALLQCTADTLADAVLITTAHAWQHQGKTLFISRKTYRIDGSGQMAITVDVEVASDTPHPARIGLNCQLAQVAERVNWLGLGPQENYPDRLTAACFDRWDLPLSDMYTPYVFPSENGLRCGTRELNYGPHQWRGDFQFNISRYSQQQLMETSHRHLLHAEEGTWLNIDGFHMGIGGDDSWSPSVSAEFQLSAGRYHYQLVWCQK

[5] = biological target: T3, E3 ubiquitin-protein ligase XIAP (Homo sapiens, UniProt P98170); experiment: Counter Screen using XIAP-Bir3 for Chemical Antagonists of Bir1/2 domains of IAP-family anti-apoptotic proteins. [Related pubchem assays (depositor defined):AID1018, AID1449, AID1514, AID1638, AID1749, AID1750, AID488957, AID488963]
T3 sequence (P98170 whole entry): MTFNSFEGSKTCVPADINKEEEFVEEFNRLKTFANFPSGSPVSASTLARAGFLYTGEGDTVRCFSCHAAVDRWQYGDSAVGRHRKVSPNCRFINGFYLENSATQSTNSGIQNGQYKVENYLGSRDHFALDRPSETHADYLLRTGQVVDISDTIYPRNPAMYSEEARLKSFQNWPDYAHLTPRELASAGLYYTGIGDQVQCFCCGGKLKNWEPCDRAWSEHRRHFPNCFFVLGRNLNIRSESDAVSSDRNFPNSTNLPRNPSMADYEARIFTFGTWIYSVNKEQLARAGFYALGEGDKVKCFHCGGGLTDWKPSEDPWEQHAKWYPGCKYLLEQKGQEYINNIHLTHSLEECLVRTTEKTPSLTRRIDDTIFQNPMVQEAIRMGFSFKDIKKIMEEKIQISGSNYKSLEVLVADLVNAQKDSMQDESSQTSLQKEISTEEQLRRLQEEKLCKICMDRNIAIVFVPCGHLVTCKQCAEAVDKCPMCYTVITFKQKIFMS

[6] = tested on: Streptococcus; experiment: GAS UMAA2166 growth inhibition – luminescence, BacTiterGlo, counter-screen for streptokinase expression inhibitor project, dose response (AID 1915); assay type: functional, organism-based;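 note: potency for reduction of bacterial viability or growth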
[7] = tested on: Streptococcus sp. 'group A'; experiment: Streptococcus pyogenes SK(-)GAS viability under kanamycin – luminescence, BacTiterGlo, confirmation, counter-screen for streptokinase expression inhibitor project, dose response (AID 1900); assay type: functional, organism-based
[8] = biological target: T4, Streptokinase A (Streptococcus pyogenes serotype M1, UniProt P10520); experiment: viability-normalized secreted streptokinase activity reduction – plasminogen activation absorbance, OD405, dose response (AID 1914); assay type: functional, Streptococcus pyogenes M1 GAS;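 note: secreted streptokinase activity via plasminogen activation per viability signal from cell pellet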
T4 sequence (P10520 whole entry): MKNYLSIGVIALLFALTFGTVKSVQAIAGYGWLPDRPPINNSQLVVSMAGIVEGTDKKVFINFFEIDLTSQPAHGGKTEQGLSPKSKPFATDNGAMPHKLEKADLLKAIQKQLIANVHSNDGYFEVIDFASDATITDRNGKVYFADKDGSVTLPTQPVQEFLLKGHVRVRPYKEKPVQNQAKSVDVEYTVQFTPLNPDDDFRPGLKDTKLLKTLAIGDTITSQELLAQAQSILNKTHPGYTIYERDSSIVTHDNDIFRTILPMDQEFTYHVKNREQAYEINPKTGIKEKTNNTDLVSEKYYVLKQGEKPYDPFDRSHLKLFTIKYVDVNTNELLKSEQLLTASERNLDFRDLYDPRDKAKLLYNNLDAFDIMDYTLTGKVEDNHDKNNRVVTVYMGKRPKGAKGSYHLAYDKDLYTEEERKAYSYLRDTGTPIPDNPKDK

[9] = biological target: T3, E3 ubiquitin-protein ligase XIAP; experiment: small molecules displacing peptide from XIAP – biochemical, IAP family, fluorescence polarization (AID 1018); assay type: functional
[10] = HepG2 cell cytotoxicity, dose response, cytotoxicity control for non-replicating M. tuberculosis project (AID 489018); assay type: functional; settings: Mycobacterium tuberculosis
[11] = tested on: H4; experiment: Luminescence Cell-Based Dose Response HTS to Identify Activators of 5'UTR Stem-Loop Driven Prion Protein mRNA Translation in H4 Neuroglioblastoma Cells. [Related pubchem assays: 1829 (Project Summary), 1814 (Primary HTS)]; assay type: functional; settings: Homo sapiens
[12] = THP-1 cell cytotoxicity, dose response, cytotoxicity control for non-replicating M. tuberculosis project (AID 489025); assay type: functional
[13] = biological target: T5, Protein RecA (Mycobacterium tuberculosis, UniProt P9WHJ3); experiment: Fluorescence Cell-Free Homogeneous Dose Retest to Identify Inhibitors of RecA-Intein Splicing Activity. [Related pubchem assays (depositor defined):AID2097, AID2223, AID489010, AID492950]; assay type: functional
T5 sequence (P9WHJ3 whole entry): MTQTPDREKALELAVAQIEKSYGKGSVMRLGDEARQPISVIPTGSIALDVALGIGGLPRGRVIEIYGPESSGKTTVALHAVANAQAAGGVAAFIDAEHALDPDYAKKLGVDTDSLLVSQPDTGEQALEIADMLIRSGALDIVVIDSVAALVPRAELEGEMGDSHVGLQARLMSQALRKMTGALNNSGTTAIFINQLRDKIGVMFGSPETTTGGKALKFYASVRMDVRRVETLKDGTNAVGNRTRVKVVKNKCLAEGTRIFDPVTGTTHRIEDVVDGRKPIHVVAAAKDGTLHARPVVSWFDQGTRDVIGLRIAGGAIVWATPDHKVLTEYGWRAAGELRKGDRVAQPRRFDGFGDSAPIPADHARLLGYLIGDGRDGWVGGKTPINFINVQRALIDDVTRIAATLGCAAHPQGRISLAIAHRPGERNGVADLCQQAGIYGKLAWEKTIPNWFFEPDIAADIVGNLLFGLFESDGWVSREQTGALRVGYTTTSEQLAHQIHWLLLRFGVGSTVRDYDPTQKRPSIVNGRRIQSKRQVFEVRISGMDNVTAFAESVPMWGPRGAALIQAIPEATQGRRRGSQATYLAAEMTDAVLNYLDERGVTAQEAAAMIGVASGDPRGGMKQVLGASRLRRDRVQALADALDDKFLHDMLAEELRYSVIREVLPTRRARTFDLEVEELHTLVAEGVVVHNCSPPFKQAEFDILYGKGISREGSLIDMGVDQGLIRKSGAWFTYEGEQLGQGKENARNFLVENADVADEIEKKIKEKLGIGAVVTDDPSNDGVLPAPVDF

[14] = Luminescence Cell-Based Dose Response HTS to Identify Activators of Luciferase Translation or Activity in H4 […] Cells. [Related pubchem assays: 1829 (Project Summary), 1814 (Primary HTS)]; assay type: functional
[15] = tested on: Vero; experiment: viability of Vero cells under compound – cytotoxicity control for flavivirus capping enzyme inhibitors (AID 588742); assay type: functional; settings: Chlorocebus sabaeus
[16] = biological target: T6, Polyadenylate-binding protein 1 (Homo sapiens, UniProt P11940); experiment: MLLE binding blockers, Cy5 peptide tracer – biochemical, fluorescence polarization, Cy5-PAM2 peptide, secondary, miRNA deadenylation inhibitor project, dose response (AID 602260); assay type: functional; settings: read-out: IC50_Mean
T6 sequence (P11940 whole entry): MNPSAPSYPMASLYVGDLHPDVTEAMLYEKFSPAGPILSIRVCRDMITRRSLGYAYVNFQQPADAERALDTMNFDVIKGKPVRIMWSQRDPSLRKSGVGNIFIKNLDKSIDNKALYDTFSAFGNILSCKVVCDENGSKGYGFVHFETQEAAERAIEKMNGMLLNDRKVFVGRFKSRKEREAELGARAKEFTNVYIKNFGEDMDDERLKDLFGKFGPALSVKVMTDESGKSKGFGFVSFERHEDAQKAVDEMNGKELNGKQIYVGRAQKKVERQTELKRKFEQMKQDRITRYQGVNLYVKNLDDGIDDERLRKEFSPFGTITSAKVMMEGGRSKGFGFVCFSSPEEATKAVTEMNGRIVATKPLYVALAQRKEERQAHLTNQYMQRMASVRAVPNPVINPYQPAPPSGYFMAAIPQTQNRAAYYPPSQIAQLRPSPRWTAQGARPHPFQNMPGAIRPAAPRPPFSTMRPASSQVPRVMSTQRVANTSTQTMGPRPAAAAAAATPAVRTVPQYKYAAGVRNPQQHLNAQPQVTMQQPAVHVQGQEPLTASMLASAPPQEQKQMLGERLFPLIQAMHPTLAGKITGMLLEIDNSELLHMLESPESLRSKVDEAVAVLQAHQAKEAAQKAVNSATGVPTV

[17] = biological target: T7, Replicative DNA helicase DnaB (Mycobacterium tuberculosis, UniProt P9WMR3); experiment: DnaB intein splicing inhibitors, dose response, biochemical, cell-free fluorescence (AID 449749); assay type: functional
T7 sequence (P9WMR3 whole entry): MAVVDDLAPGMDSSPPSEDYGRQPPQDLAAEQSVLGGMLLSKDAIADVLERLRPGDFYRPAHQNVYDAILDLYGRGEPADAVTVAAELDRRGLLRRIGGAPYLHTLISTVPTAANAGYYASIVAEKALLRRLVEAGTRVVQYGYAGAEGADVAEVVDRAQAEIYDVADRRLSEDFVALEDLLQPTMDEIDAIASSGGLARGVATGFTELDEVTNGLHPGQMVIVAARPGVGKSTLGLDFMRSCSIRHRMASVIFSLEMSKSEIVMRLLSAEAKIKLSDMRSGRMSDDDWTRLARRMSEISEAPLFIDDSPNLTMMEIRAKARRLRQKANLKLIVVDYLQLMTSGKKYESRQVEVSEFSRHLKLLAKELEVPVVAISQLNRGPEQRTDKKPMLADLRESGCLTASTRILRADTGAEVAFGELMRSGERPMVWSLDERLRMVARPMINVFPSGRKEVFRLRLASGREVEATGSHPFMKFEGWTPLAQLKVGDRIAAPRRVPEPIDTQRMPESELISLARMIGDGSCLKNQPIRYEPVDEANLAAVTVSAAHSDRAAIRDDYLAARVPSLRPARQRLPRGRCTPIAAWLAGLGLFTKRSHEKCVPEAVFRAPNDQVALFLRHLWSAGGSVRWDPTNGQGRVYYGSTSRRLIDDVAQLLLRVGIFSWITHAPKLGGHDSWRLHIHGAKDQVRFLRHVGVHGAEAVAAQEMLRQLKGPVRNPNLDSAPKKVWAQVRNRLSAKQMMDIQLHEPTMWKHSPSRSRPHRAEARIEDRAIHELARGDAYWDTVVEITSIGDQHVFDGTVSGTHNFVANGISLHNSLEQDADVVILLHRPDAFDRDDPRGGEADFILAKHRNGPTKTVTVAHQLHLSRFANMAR

[18] = biological target: Genome polyprotein (dengue virus type 2, UniProt P29990); experiment: flavivirus cap methylation enzyme inhibition – biochemical, confirmation dose response, primary screen (AID 588689); assay type: functional
Sequence of Genome polyprotein (P29990 2492-3391 limits assumed): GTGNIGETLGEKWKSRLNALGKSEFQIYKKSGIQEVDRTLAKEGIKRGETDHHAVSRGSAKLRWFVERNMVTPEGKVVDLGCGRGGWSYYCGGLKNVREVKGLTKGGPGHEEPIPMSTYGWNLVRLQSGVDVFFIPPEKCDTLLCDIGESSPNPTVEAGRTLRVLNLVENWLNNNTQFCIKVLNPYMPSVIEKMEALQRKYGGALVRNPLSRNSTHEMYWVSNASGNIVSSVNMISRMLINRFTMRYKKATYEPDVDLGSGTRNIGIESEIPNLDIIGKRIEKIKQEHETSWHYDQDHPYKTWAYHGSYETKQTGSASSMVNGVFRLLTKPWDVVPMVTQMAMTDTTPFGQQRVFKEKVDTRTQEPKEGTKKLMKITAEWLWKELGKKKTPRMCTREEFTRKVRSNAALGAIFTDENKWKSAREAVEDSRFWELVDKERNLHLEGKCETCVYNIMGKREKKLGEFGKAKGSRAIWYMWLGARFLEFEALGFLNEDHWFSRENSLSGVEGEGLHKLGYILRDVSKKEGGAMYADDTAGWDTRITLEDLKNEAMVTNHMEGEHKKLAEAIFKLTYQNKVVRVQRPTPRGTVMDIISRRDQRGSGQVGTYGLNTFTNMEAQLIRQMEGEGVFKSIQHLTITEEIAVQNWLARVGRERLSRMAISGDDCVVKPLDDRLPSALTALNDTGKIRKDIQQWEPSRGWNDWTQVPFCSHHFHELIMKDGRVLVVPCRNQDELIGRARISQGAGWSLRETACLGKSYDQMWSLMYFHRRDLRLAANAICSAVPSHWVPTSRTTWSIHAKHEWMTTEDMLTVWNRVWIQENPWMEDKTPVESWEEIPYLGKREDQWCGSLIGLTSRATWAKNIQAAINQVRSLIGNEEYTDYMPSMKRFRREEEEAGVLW

[19] = microbe, parasite or virus in culture; assay type: functional; settings: Mycobacterium tuberculosis
[20] = Vero E6 cell cytotoxicity, dose response, cytotoxicity control for non-replicating M. tuberculosis project, secondary assay (AID 492998); assay type: functional, VeroE6; settings: Vero C1008
[21] = Luminescence Cell-Based Dose Confirmation HTS to Identify Activators of 5'UTR Stem-Loop Driven Alpha-Synuclein mRNA Translation in H4 Neuroglioblastoma Cells. [Related pubchem assays: 1829 (Project Summary), 1814 (Primary HTS)]; assay type: functional
[22] = cells; assay type: functional
[23] = biological target: T6, Polyadenylate-binding protein 1; experiment: MLLE domain peptide-binding blockers, IC50 – biochemical, fluorescence polarization, FITC-PAM2 peptide, dose response (AID 602259); assay type: functional; settings: read-out: IC50_Mean
[24] = HIV-1 Vif–A3G interaction blockers – biochemical, TR-FRET, GST-Vif 1-94, biotin-A3G peptide, dose response retest, primary screen (AID 1117319); assay type: functional;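 note: TR-FRET signal of purified GST-Vif binding a biotinylated A3G peptide; inhibitors lower the FRET signal by blocking Vif and A3G binding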
[25] = biological target: Phosphomannomutase 2 (Homo sapiens, UniProt O15305); experiment: Counter screen SAR assay for PMM2 inhibitors via a fluorescence intensity assay. [Related pubchem assays (depositor defined):AID1545, AID1574]
Sequence of Phosphomannomutase 2 (O15305 whole entry): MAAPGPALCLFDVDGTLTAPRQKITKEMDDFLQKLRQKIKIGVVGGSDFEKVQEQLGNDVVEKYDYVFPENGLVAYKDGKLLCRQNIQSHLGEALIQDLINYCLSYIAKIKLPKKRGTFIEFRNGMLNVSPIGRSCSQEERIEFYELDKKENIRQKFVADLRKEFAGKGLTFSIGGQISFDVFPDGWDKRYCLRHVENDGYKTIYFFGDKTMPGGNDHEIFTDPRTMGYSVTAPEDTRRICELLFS

[26] = biological target: T8, Mannose-6-phosphate isomerase (Homo sapiens, UniProt P34949); experiment: phosphomannose isomerase inhibition – biochemical, fluorescence intensity, confirmation (AID 1535)
T8 sequence (P34949 whole entry): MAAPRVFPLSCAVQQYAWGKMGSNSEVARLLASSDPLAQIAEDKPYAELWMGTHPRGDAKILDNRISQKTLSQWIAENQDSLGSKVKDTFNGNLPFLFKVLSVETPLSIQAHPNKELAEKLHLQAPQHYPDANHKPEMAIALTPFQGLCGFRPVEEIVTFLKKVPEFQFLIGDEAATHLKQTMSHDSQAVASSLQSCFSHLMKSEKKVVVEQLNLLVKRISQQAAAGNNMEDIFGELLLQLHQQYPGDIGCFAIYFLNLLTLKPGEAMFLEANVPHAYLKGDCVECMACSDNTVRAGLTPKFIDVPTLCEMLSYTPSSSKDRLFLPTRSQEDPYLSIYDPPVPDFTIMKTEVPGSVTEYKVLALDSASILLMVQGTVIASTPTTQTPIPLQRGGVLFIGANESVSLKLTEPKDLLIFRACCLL

[27] = biological target: G-protein coupled receptor 55 (Homo sapiens, UniProt Q9Y2T6); experiment: inhibition of LPI-stimulated GPR55 beta-arrestin translocation – imaging, U2OS, beta-arrestin-GFP, LPI agonist, primary screen (AID 2013); assay type: functional;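 note: antagonist potency measured as reduced agonist-driven arrestin aggregation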
Sequence of G-protein coupled receptor 55 (Q9Y2T6 whole entry): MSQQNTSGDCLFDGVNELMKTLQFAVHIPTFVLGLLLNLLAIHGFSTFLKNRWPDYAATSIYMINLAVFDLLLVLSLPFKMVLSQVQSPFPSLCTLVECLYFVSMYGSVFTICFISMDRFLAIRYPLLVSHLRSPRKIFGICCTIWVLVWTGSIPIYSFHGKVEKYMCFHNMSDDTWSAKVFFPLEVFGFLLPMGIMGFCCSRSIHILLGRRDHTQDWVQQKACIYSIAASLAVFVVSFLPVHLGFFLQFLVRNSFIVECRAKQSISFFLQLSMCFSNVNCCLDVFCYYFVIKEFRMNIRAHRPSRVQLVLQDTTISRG

T1 sequence (P41145 whole entry): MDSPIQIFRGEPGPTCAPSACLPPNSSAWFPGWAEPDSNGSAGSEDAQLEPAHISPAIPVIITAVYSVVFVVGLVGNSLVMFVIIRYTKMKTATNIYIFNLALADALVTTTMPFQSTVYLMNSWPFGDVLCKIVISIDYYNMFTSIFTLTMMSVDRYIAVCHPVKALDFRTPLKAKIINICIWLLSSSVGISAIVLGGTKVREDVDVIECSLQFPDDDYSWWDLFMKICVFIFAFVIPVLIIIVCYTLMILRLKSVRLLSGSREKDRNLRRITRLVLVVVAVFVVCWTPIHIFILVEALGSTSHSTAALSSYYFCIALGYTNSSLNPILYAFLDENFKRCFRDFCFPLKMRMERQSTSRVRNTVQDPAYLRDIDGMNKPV

O=C(N/N=C/c1ccccn1)c1ccc([N+](=O)[O-])cc1
IC50 [1]: 14.7 µM (active) | IC50 [2]: > 32 µM | EC50 [3]: > 195 µM (not active) | EC50 [4]: > 31.5 µM (inactive)

COc1ccc(CCNC(=O)CSc2nncn2N)cc1OC
IC50 [5]: > 100 µM (inactive) | EC50 [6]: > 150 µM (not active) | EC50 [7]: > 150 µM (not active) | EC50 [8]: > 150 µM (not active) | IC50 [9]: > 100 µM (not active)

O=[N+]([O-])c1cc([N+](=O)[O-])c2cc3ccccc3nc2c1
CC50 [10]: 14 µM (active) | EC50 [11]: 32 µM (active) | CC50 [12]: 5.67 µM (active) | EC50 [13]: 1.17 µM (active) | EC50 [14]: > 120 µM (not active) | CC50 [15]: 10.1 µM (active) | IC50 [16]: > 66 µM (inactive) | AC50 [17]: > 380 µM (inconclusive) | IC50 [18]: 6.37 µM (active) | CC50 [19]: 18.9 µM (active) | CC50 [20]: 12.7 µM (active) | EC50 [21]: > 120 µM (not active) | IC50 [22]: 0.39 µM (active) | IC50 [23]: > 66 µM (inactive)

O=C(O)CN1C(=O)COc2cc(S(=O)(=O)N3CCCC3)ccc21
IC50 [24]: > 100 µM (active) | IC50 [5]: > 100 µM (inactive) | IC50 [9]: > 100 µM (not active)

COCCNP(=O)(c1ccccc1)c1nc2ccccc2s1 (centres undefined)
IC50 [25]: > 100 µM (inactive) | IC50 [26]: > 50 µM (inactive)

O=C1/C(=C/c2ccncc2)SC(=S)N1C1CCS(=O)(=O)C1 (centres undefined)
IC50 [27]: 5.49 µM (active)
